Data published in patent US5254727A, “Acyclic tricarboxylic acid compounds” (Merck & Co., Inc., priority 1992, dated 1993).

Assays:
[1] = biological target: T1, squalene synthetase, rat liver microsomes (Rattus norvegicus, UniProt Q02769); test: Squalene synthetase assay using rat liver enzyme; assay type: biochemical; conditions: rat liver microsomal enzyme, [4-14C]farnesyl pyrophosphate, 30° C., 20 min
T1 construct: from tissue; host or cells: liver microsomes of male Charles River CD rats fed 0.1% lovastatin
T1 sequence (Q02769 1-416): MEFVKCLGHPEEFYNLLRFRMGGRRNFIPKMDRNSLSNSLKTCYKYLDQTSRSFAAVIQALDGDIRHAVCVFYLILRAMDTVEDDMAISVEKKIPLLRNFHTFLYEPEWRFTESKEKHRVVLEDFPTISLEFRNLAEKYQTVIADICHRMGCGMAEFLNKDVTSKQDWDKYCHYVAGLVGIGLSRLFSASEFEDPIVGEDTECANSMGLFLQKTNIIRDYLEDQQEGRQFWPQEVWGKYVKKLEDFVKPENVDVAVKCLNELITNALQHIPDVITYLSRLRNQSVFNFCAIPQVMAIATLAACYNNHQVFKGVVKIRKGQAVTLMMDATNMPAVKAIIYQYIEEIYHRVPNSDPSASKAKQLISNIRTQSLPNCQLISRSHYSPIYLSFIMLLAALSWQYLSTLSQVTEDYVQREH
Protocol: B. SQUALENE SYNTHETASE ASSAY USING RAT LIVER ENZYME
Preparation of Rat Liver Microsomes: Male, Charles River CD rats (120 to 150 g) were fed a diet containing 0.1% lovastatin for 4 days. The livers from these rats were homogenized in 5 volumes (ml/g) of ice cold 50 mM HEPES (4-(2-hydroxyethyl)-1-piperazine-ethanesulfonic acid), 5 mM EDTA(ethylenediaminetetra-acetic acid) pH 7.5 with a Potter-Elvehjem type tissue grinder. The homogenate was centrifuged twice at 20,000×g for 15 minutes at 4° C., discarding the pellet each time. The supernatant was then centrifuged at 100,000×g for 1 hour at 4° C. The resulting microsomal pellet was resuspended in a volume of the above homogenizing buffer equal to one-fifth the volume of the original homogenate. This microsomal preparation has a protein concentration of about 7 mg/ml. The microsomal suspensions were stored in aliquots at -70° C. Squalene synthetase activity in these aliquots is stable for at least several months.
Partial Purification of Prenyl Transferase: Prenyl transferase was purified to use in the enzymatic synthesis of radiolabelled farnesyl pyrophosphate [FPP]. Prenyl transferase was assayed by the method of Rilling (Methods in Enzymology 110, 125-129 (1985)) and a unit of activity is defined as the amount of enzyme that will produce 1 μmole of farnesyl pyrophosphate per minute at 30° C. in the standard assay. […]

[2] = biological target: T2, squalene synthetase from human HEPG2 cells (Homo sapiens, UniProt P37268); test: Squalene synthetase assay using HepG2 cell enzyme; assay type: biochemical; conditions: 3 μM 3H-farnesyl pyrophosphate, 30° C., 20 min
T2 construct: The resulting pellet from the 34,000 rpm centrifugation, containing the squalene synthetase, was resuspended in 5 mL of enzyme suspension buffer; endogenous in cells; host or cells: HepG2 cells (ATCC HB 8065), pellet of the 34,000 rpm centrifugation (microsomal)
T2 sequence (P37268 1-417): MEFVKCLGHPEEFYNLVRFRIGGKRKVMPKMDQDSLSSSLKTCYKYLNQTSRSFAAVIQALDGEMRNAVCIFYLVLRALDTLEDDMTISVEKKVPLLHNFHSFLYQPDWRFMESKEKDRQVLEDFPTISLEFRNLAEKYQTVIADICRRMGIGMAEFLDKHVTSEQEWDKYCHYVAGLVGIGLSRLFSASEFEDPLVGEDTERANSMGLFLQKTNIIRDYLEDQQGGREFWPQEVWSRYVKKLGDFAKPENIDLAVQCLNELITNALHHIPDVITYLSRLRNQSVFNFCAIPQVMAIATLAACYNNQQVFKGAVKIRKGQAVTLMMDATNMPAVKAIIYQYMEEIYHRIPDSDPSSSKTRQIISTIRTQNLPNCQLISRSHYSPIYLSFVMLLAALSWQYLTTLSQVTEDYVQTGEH
Protocol: A. SQUALENE SYNTHETASE ASSAY USING HEPG2 CELL ENZYME
1. Preparation of Human HepG2 Cell Enzyme
Source: HEPG2 CELL LINE (Liver, hepatoblastoma, Human) ATCC No. HB 8065
Cell Growth and Maintenance: Culture Medium: Minimum essential medium (MEM) with non-essential amino acids, sodium pyruvate, and 10% fetal bovine serum. The medium was changed twice weekly. A confluent monolayer was acheived in 1 week. The growth medium was prepared as listed below.
Subculture Procedure: The medium was removed and washed with PBS (Phosphate-Buffered Saline 15.6 mM, pH 7.0). Fresh trypsin (0.25%)-EDTA (0.02%) with Hank's Balanced Salt solution was added and the flask was allowed to stand for a minute before the trypsin solution was removed. The flask was incubated at 37° C. until cells detached. Fresh medium was added and the cells were dispersed and dispensed into new flasks. Subcultivation ratio: 1:6.
Preparation of Delipidated Serum: Fetal calf serum (100 ml) and CAB-O-Sil (2 grams) were stirred overnight at 4° C. and centrifuged at 16,000 rpm for 5 hrs. […]
Harvest: The medium was removed and the cells were washed with PBS. […] Cells were counted (2.5×10^9 yield from 18 flasks (75 cm^2)), and resuspended in 10 mL of 50 mM HEPES (N-[2-Hydroxyethyl]piperazine-N'-[2-ethane-sulfonic acid]) containing 5 mM MgCl2, 2 mM MnCl2, 10 mM DTT (dithiothreitol), pH 7.5 (enzyme suspension buffer). […]

Molecule CC(C/C=C/c1ccccc1)CC(C)CCCCCC(C(=O)O)C(O)(CC(=O)O)C(=O)O (centres unmarked) [Compound IA] has an IC50 [1] of 0.767 µM and an IC50 [2] of roughly 0.145 µM.
